Assay results: US20170348343A1, “METHODS OF TREATING HEPATITIS E VIRAL INFECTION” (Gilead Pharmasset LLC, priority 2016, published 2017)

Test system: HEV
Experiment: HEV RNA test in a human subject with HEV infection (case, Example 1)
Type: in vivo
Description: A human subject was identified as having AIDS, Kaposi's sarcoma, non-Hodgkin's lymphoma, compensated cirrhosis, and a history of alcoholism. An HEV RNA test of the subject was conducted, and the result was positive, at approximately 20,000 IU/mL. The subject was started on ribavirin monotherapy, wherein ribavirin was administered to the subject at 800 mg once per day. […] The subject was then started on a treatment wherein ribavirin administration was continued at 800 mg per day and sofosbuvir was also administered at 400 mg per day. After four weeks of such treatment, the subject's HEV RNA levels were below the lower limit of detection of about 25 IU/mL.

NC(=O)c1ncn([C@@H]2O[C@H](CO)[C@@H](O)[C@H]2O)n1 [ribavirin]
HEV status (ribavirin monotherapy 800 mg once per day for over one year, human subject, baseline HEV RNA approximately 20,000 IU/mL): remained HEV-positive

CC(C)OC(=O)[C@H](C)N[P@](=O)(OC[C@H]1O[C@@H](n2ccc(=O)[nH]c2=O)[C@](C)(F)[C@@H]1O)Oc1ccccc1 [sofosbuvir, (S)-isopropyl 2-(((S)-(((2R,3R,4R,5R)-5-(2,4-dioxo-3,4-dihydropyrimidin-1(2H)-yl)-4-fluoro-3-hydroxy-4-methyltetrahydrofuran-2-yl)methoxy)(phenoxy)phosphoryl)amino)propanoate]
HEV RNA levels (sofosbuvir 400 mg per day together with continued ribavirin 800 mg per day, after four weeks, same subject, lower limit of detection about 25 IU/mL): < 25 IU/mL
